Values of other authors in paper PMC3526234 (Diabetes Care, 2012).

Tested on: patients with diabetic gastroparesis
Details: intravenous erythromycin, 10 patients with diabetic gastroparesis

CC[C@H]1OC(=O)[C@H](C)[C@@H](O[C@H]2C[C@@](C)(OC)[C@@H](O)[C@H](C)O2)[C@H](C)[C@@H](O[C@@H]2O[C@H](C)C[C@H](N(C)C)[C@H]2O)[C@](C)(O)C[C@@H](C)C(=O)[C@H](C)[C@@H](O)[C@]1(C)O [erythromycin]
estimated effect relative to placebo on percent retained at 60 min: 75%
